According to patent publication EP0687469A2, “Anti-arrhythmic 3,7-diazabicyclo (3,3,1)nonane compounds” (Kali-Chemie Pharma GmbH, priority 1994, dated 1995):

Columns and labels:
[1] = tested on: transienter Auswärtsstrom Ito; experiment: voltage clamp measurement of ion currents in isolated heart muscle cells (Ito); type: cell-based, Ratten; conditions: read-out: Blockade von Ionenströmen in % des Vorwerts transienter Auswärtsstrom Ito
Excerpt: (§1) Die Experimente wurden mit der Spannungsklemmmethode an isolierten Herzmuskelzellen von Meerschweinchen und Ratten durchgeführt. Hierbei wurden die Messungen des Ito an Zellen von Rattenherzen und die Messungen des Ik an Zellen von Meerschweinchenherzen durchgeführt. Die Herzen wurden mit proteolytischen Enzymen (Collagenase) perfundiert, um das Bindegewebe zu lockern. Anschließend wurde das Gewebe mechanisch zerkleinert und sodann erfolgte eine weitere Vereinzelung der Zellen in einer Nährlösung im Schüttelbad. Durch anschließendes Zentrifugieren wurde eine Suspension von Herzmuskelzellen erhalten. Bei der angewendeten Spannungsklemmethode zur Messung der Membranströme wird mittels einer Mikroelektrode (in Form einer mit Elektrolytlösung gefüllten Glaskapillare) das Zellinnere mit einem Verstärker verbunden, der die Membranspannung vorgeben kann. Fließt nun ein Ionenstrom durch die Membran (= Öffnung des Ionenkanalproteins) und verschiebt die Membranspannung, kompensiert der Verstärker diese Verschiebung durch einen Gegenstrom, d. h. die Spannung ist sozusagen festgeklemmt. Der gemessene Gegenstrom entspricht in seinem zeitlichen Verlauf dem physiologischen Ionenstrom mit umgekehrtem Vorzeichen. Die Aktivierung der verschiedenen Ionenströme in der Zellmembran hängt charakteristisch von Spannung und Zeit ab. […]

[2] = tested on: verz.gleichr. Auswärtsstrom Ik; experiment: voltage clamp measurement of ion currents in isolated heart muscle cells (Ik); type: cell-based, Meerschweinchen; conditions: read-out: Blockade von Ionenströmen in % des Vorwerts verz.gleichr. Auswärtsstrom Ik
Excerpt: as §1

CC(C)CN1CC2CN(C(C)C)CC(C1)C21CCCCC1 [Bertosamil, N-Isobutyl-N'-isopropyl-9,9-pentamethylen-3,7-diazabicyclo[3,3,1]nonan]
inhibition at 1 µM [1]: 38% | inhibition at 1 µM [2]: 13%
